# According to article PMC9297976 (Journal of Applied Toxicology, 2021):
# Legend:
# [1] = target: T1, medaka Esr1 (mEsr1) (Oryzias latipes, UniProt P50241); experiment: cell-based; design: species or system Japanese medaka (Oryzias latipes)
# T1 sequence (P50241 1-620): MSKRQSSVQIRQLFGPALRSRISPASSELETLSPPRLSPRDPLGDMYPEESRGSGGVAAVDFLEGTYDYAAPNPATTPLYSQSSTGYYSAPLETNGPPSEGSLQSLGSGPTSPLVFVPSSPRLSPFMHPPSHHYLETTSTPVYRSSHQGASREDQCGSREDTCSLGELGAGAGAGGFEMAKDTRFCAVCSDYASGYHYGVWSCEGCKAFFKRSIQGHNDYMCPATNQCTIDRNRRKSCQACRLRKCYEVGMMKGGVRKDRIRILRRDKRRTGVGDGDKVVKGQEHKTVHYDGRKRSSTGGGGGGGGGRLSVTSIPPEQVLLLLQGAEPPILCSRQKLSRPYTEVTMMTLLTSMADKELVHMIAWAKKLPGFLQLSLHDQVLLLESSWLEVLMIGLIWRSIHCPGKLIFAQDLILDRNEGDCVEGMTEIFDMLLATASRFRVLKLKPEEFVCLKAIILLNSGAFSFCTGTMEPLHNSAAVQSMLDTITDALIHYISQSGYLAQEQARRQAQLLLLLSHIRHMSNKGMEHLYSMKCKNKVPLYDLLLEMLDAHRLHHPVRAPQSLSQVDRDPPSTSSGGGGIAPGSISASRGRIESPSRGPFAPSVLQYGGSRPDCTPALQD
# [2] = target: T2, medaka ARβ (mArβ) (Oryzias latipes, UniProt D1MV73); experiment: Medaka ARβ reporter gene assay, antagonist assay; format: cell-based, Japanese medaka (Oryzias latipes); conditions: 11‐KT spiked at 50 nM (D); MAC = 1.0 × 10^−5 M
# T2 sequence (D1MV73 1-744): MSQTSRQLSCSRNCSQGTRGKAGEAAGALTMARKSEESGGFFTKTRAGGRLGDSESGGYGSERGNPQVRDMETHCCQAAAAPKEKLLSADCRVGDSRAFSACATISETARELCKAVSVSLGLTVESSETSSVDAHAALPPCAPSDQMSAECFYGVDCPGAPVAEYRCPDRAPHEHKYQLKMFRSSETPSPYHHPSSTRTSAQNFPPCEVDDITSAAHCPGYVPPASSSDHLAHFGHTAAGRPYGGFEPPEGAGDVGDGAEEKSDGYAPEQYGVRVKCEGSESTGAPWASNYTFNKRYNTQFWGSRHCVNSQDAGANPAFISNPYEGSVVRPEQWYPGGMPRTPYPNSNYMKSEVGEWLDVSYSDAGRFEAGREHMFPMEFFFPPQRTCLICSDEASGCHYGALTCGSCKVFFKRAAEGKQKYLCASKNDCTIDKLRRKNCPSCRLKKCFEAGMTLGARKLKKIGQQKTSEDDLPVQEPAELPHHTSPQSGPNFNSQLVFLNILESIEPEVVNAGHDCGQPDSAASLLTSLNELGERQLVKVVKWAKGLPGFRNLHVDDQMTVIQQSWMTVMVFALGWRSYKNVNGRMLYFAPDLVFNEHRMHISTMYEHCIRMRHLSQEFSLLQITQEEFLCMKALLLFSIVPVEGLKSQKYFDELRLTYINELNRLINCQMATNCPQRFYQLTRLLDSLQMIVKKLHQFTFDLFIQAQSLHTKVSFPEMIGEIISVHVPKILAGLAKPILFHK
# [3] = target: T2, medaka ARβ (mArβ); experiment: Medaka ARβ reporter gene assay, agonist assay; format: cell-based, Japanese medaka (Oryzias latipes); conditions: MAC = 1.0 × 10^−5 M
# [4] = tested on: Japanese medaka (Oryzias latipes); experiment: Fish Short‐Term Reproduction Assay; format: in vivo; conditions: for Fertility rate / Hepatic VTG, female / Hepatic VTG, male / Mortality / Mortality, number of dead fish / Number of fertilized eggs (per female per day) / Number of total eggs (per female per day) / SSC female (joint plates with papillary processes) / SSC male (joint plates with papillary processes): 21 d; for GSI Female / GSI Male / HSI Female / HSI Male / Length Female / Length Male / Weight Female / Weight Male: completion of exposure
# [5] = target: T1, medaka Esr1 (mEsr1); experiment: Medaka Esr1 reporter gene assay, antagonist assay; format: cell-based, Japanese medaka (Oryzias latipes); conditions: E2 spiked at 1.0 nM (B); MAC = 1.0 × 10^−5 M
# [6] = measured concentration 184 μg/L
# [7] = measured concentration 836 μg/L
compound,measurement,setting,value
"CC(C)COC(=O)c1ccccc1C(=O)OCC(C)C [DIBP, Diisobutyl phthalate]",Agonistic activity PC10,[1],PC10 = 3.0 × 10^−6 M
same,In vitro positive: Esr,[1]; mode of action in which EC50 or PC10 was obtained in RGA,Esr
same,Antagonistic activity,[2],NE (MAC = 1.0 × 10^−5 M)^(D)
same,Agonistic activity,[3],NE (MAC = 1.0 × 10^−5 M)
same,Fertility rate,[4]; 35 μg/L measured,97 ± 4.8%
same,"Hepatic VTG, female",[4]; 35 μg/L measured,596 ± 144 ng/mg‐liver
same,"Hepatic VTG, male",[4]; 35 μg/L measured,0.3 ± 0.4 ng/mg‐liver
same,Mortality,[4]; 35 μg/L measured,0.0%
same,"Mortality, number of dead fish",[4]; 35 μg/L measured,0
same,Number of fertilized eggs (per female per day),[4]; 35 μg/L measured,23 ± 6.6
same,Number of total eggs (per female per day),[4]; 35 μg/L measured,24 ± 7.0
same,SSC female (joint plates with papillary processes),[4]; 35 μg/L measured,0 ± 0
same,SSC male (joint plates with papillary processes),[4]; 35 μg/L measured,96 ± 11
same,Fertility rate,[4]; 184 μg/L measured,97 ± 3.9%
same,"Hepatic VTG, male",[4]; 184 μg/L measured,0.2 ± 0.1 ng/mg‐liver
same,Mortality,[4]; 184 μg/L measured,0.0%
same,"Mortality, number of dead fish",[4]; 184 μg/L measured,0
same,Number of fertilized eggs (per female per day),[4]; 184 μg/L measured,23 ± 6.9
same,Number of total eggs (per female per day),[4]; 184 μg/L measured,24 ± 7.2
same,SSC female (joint plates with papillary processes),[4]; 184 μg/L measured,0 ± 0
same,SSC male (joint plates with papillary processes),[4]; 184 μg/L measured,96 ± 10
same,"Hepatic VTG, female","[4]; 184 μg/L measured, sig. ↓ vs control",404 ± 85 ng/mg‐liver
same,Fertility rate,[4]; 836 μg/L measured,96 ± 5.4%
same,"Hepatic VTG, male",[4]; 836 μg/L measured,2.2 ± 3.2 ng/mg‐liver
same,Mortality,[4]; 836 μg/L measured,0.0%
same,"Mortality, number of dead fish",[4]; 836 μg/L measured,0
same,Number of fertilized eggs (per female per day),[4]; 836 μg/L measured,24 ± 5.9
same,Number of total eggs (per female per day),[4]; 836 μg/L measured,25 ± 5.8
same,SSC female (joint plates with papillary processes),[4]; 836 μg/L measured,0 ± 0
same,SSC male (joint plates with papillary processes),[4]; 836 μg/L measured,97 ± 18
same,"Hepatic VTG, female","[4]; 836 μg/L measured, sig. ↓ vs control",421 ± 73 ng/mg‐liver
same,LOECREPRO,[4]; LOEC on reproduction (fecundity and/or fertility),ND (>836) μg/L
same,minimal effective concentration,"[4]; Oryzias latipes, 504 h, read-out: LOECmVTG",> 0.836 µg/mL
same,LOECTOX,[4]; lowest observed effect concentration on mortality,ND (>836) μg/L
same,GSI Female,[4]; measured concentration 35 μg/L,13.3 ± 2.3%
same,GSI Male,[4]; measured concentration 35 μg/L,1.2 ± 0.2%
same,HSI Female,[4]; measured concentration 35 μg/L,6.3 ± 1.60%
same,HSI Male,[4]; measured concentration 35 μg/L,2.7 ± 0.40%
same,Length Female,[4]; measured concentration 35 μg/L,33.6 ± 1.5 mm
same,Length Male,[4]; measured concentration 35 μg/L,31.9 ± 1.2 mm
same,Weight Female,[4]; measured concentration 35 μg/L,446 ± 48 mg
same,Weight Male,[4]; measured concentration 35 μg/L,335 ± 39 mg
same,GSI Female,[4]; [6],13.6 ± 1.9%
same,GSI Male,[4]; [6],1.0 ± 0.3%
same,HSI Female,[4]; [6],6.3 ± 0.90%
same,HSI Male,[4]; [6],3.1 ± 0.40%
same,Length Female,[4]; [6],32.6 ± 1.5 mm
same,Length Male,[4]; [6],31.8 ± 1.4 mm
same,Weight Female,[4]; [6],405 ± 52 mg
same,Weight Male,[4]; [6],329 ± 55 mg
same,GSI Female,[4]; [7],12.0 ± 2.0%
same,GSI Male,[4]; [7],1.2 ± 0.4%
same,HSI Female,[4]; [7],5.9 ± 1.30%
same,HSI Male,[4]; [7],3.4 ± 0.40%
same,Length Female,[4]; [7],32.6 ± 1.4 mm
same,Length Male,[4]; [7],32.4 ± 1.7 mm
same,Weight Female,[4]; [7],413 ± 61 mg
same,Weight Male,[4]; [7],348 ± 62 mg
same,Antagonistic activity,[5],NE (MAC = 1.0 × 10^−5 M)^(B)
